Assay results reported in paper PMC4146477, “Synthesis and Antimycobacterial and Photosynthesis-Inhibiting Evaluation of 2-[(E)-2-Substituted-ethenyl]-1,3-benzoxazoles” (The Scientific World Journal, 2014).
≈ marks a conversion by molar mass, not a printed value. Where “and” joins values, the source holds several entries; their conditions need not be identical. Equal values may be shown once. Read-outs that look alike come from different tables or passages of the source.

Legend:
[1] = Lipophilicity determination by RP-HPLC (capacity factor k / log k); format: physicochemical; settings: C18, MeOH 70% / H2O 30%, isocratic
Text: A Waters Alliance 2695 XE HPLC separation module and a Waters Photodiode Array Detector 2996 (Waters Corp., Milford, MA, USA) were used. A Symmetry C18 5 μm, 4.6 × 250 mm, Part No. WAT054275 (Waters Corp., Milford, MA, USA) chromatographic column was used. The HPLC separation process was monitored by Empower 2 Chromatography Data Software, Waters 2009 (Waters Corp., Milford, MA, USA). A mixture of MeOH p.a. (70%) and H2O-HPLC - Mili-Q Grade (30%) was used as a mobile phase. The total flow of the column was 1.0 mL/min, injection volume, 30 μL, column temperature, 45°C, and sample temperature, 10°C. The detection wavelength of 210 nm was chosen. The KI methanolic solution was used for the dead time (t D) determination. Retention times (t R) were measured in minutes. The capacity factors k were calculated using the Empower 2 Chromatography Data Software according to formula k = (t R − t D)/t D, where t R is the retention time of the solute, whereas t D denotes the dead time obtained using an unretained analyte.
Lipophilicity is a property that has a major effect on ADME/Tox properties as well as pharmacological activity, because drugs mostly cross biological membranes through passive transport, which strongly depends on their lipophilicity. Lipophilicity has been studied and applied as an important drug property for decades. This parameter was measured by means of RP-HPLC and expressed as logarithm of capacity factor k. The procedure was performed under isocratic conditions with methanol as an organic modifier in the mobile phase using an end-capped nonpolar C18 stationary RP column. The hydrophobic contributions (expressed as distributive parameters π) of individual substituents in C(2) position of 2-[(E)-2-substituted-ethenyl]-1,3-benzoxazole scaffold were predicted using ACD/Percepta ver. 2012 (Advanced Chemistry Development, Inc., Toronto, ON, Canada). The results are shown in Table 1 and the match of the experimental determined lipophilicity log k with calculated distributive parameters π is illustrated in Figure 1.

[2] = system: Mycobacterium tuberculosis My 331/88; assay: In vitro antimycobacterial evaluation (MIC, Sula semisynthetic medium); format: cell-based
[3] = system: M. avium My 330/88; assay: as above; format: cell-based; settings: Mycobacterium avium
[4] = system: M. kansasii My 235/80; assay: as above; format: cell-based; settings: Mycobacterium kansasii
[5] = system: photosynthetic electron transport (PET) in spinach chloroplasts; assay: Inhibition of photosynthetic electron transport (PET) in spinach chloroplasts (DCPIP photoreduction); format: biochemical, Spinacia oleracea L.; settings: DCPIP as electron acceptor
Experimental: Chloroplasts were prepared from spinach (Spinacia oleracea L.) according to Masarovicova and Kralova. The inhibition of photosynthetic electron transport (PET) in spinach chloroplasts was determined spectrophotometrically (Genesys 6, Thermo Scientific), using an artificial electron acceptor 2,6-dichlorophenol-indophenol (DCPIP) according to Kralova et al., and the rate of photosynthetic electron transport was monitored as a photoreduction of DCPIP. The measurements were carried out in phosphate buffer (0.02 mol/L, pH 7.2) containing sucrose (0.4 mol/L), MgCl2 (0.005 mol/L), and NaCl (0.015 mol/L). The chlorophyll content was 30 mg/L in these experiments and the samples were irradiated (~100 W/m^2 with 10 cm distance) with a halogen lamp (250 W) using a 4 cm water filter to prevent warming of the samples (suspension temperature 22°C). The studied compounds were dissolved in DMSO due to their limited water solubility. […] The inhibitory efficiency of the studied compounds was expressed by IC50 values, that is, by molar concentration of the compounds causing 50% decrease in the oxygen evolution rate relative to the untreated control.

[6] = MY331/88, 336 h, 14d incubation
[7] = MY331/88, 504 h, 21d incubation
[8] = MY330/88, 336 h, 14d incubation
[9] = MY330/88, 504 h, 21d incubation
[10] = MY235/80, 336 h, 14d incubation, read-out: MIC MK
[11] = MY235/80, 504 h, 21d incubation, read-out: MIC MK

| Structure (SMILES) | log k [1] | MIC [2, 6] | MIC [2, 7] | MIC [3, 8] | MIC [3, 9] | MIC [4, 10] | MIC [4, 11] | IC50 [5] | MIC ([4]; MY235/80, incubation time not stated, read-out: inhibitory activity (MIC) against M. kansasii) |
| --- | --- | --- | --- | --- | --- | --- | --- | --- | --- |
| C(=C\c1nc2ccccc2o1)/c1ccc2c(c1)CCO2 [Compound 8, 2-[(E)-2-(2,3-Dihydro-1-benzofuran-5-yl)ethenyl]-1,3-benzoxazole] | 0.9397 | 62.5 µM (≈ 16.5 µg/mL) | 62.5 µM (≈ 16.5 µg/mL) | 32 µM (≈ 8.43 µg/mL) | 32 µM (≈ 8.43 µg/mL) | 62.5 µM (≈ 16.5 µg/mL) | 250 µM (≈ 65.8 µg/mL) | 131 µM | – |
| C(=C\c1nc2ccccc2o1)/c1ccco1 [Compound 9, 2-[(E)-2-(Furan-2-yl)ethenyl]-1,3-benzoxazole] | – | 62.5 µM (≈ 13.2 µg/mL) | 125 µM (≈ 26.4 µg/mL) | 62.5 µM (≈ 13.2 µg/mL) | 125 µM (≈ 26.4 µg/mL) | 125 µM (≈ 26.4 µg/mL) | 125 µM (≈ 26.4 µg/mL) | 224 µM | – |
| CCc1ccc(/C=C/c2nc3ccccc3o2)o1 [Compound 10, 2-[(E)-2-(5-Ethylfuran-2-yl)ethenyl]-1,3-benzoxazole] | 1.0702 | 250 µM (≈ 59.8 µg/mL) | 250 µM (≈ 59.8 µg/mL) | 250 µM (≈ 59.8 µg/mL) | 250 µM (≈ 59.8 µg/mL) | 62.5 µM (≈ 15 µg/mL) | 250 µM (≈ 59.8 µg/mL) | 122 µM | – |
| C(/C=C/c1nc2ccccc2o1)=C\c1ccccc1 [Compound 11, 2-[(1E,3E)-4-Phenylbuta-1,3-dien-1-yl]-1,3-benzoxazole] | – | 125 µM (≈ 30.9 µg/mL) | 250 µM (≈ 61.8 µg/mL) | 250 µM (≈ 61.8 µg/mL) | 500 µM (≈ 124 µg/mL) | 500 µM (≈ 124 µg/mL) | 500 µM (≈ 124 µg/mL) | 778 µM | 500 µM (≈ 124 µg/mL) |
| COc1ccc(/C=C/C=C/c2nc3ccccc3o2)cc1 [Compound 12, 2-[(1E,3E)-4-(4-Methoxyphenyl)buta-1,3-dien-1-yl]-1,3-benzoxazole] | 1.1394 | 125 µM (≈ 34.7 µg/mL) | 250 µM (≈ 69.3 µg/mL) | 125 µM (≈ 34.7 µg/mL) | 125 µM (≈ 34.7 µg/mL) | 125 µM (≈ 34.7 µg/mL) | 250 µM (≈ 69.3 µg/mL) | 351 µM | – |
| CN(C)C(=O)Nc1ccc(Cl)c(Cl)c1 [DCMU, 3-(3,4-dichlorophenyl)-1,1-dimethylurea, reference compound] | – | – | – | – | – | – | – | ~1.9 µM and 1.9 µM | – |
| NNC(=O)c1ccncc1 [INH, isoniazid, reference compound] | – | 0.5 µM (≈ 0.0686 µg/mL) | 0.5 µM (≈ 0.0686 µg/mL) | > 250 µM | > 250 µM | > 250 µM | > 250 µM | – | – |
